Laboratory results from patent publication US9604923B2 (H. LEE MOFFITT CANCER CENTER AND RESEARCH INSTITUTE, INC., priority 2006, dated 2017).

Legend:
[1] = test system: Stat5:5; experiment: STATs DNA-binding activity in vitro, EMSA with MGFe probe; set-up: species or system mouse
[2] = test system: pShc, pErk1/2, pSrc, pTyr profile in NIH3T3/v-Src or EGF-stimulated NIH3T3/hEGFR; experiment: Western blot for other signaling proteins; assay type: cell-based, mouse
[3] = test system: β-Casein promoter-driven Luc; experiment: Luciferase reporter assay, v-Src co-transfected NIH3T3; assay type: cell-based, mouse; conditions: 100 μM, 24 hours
From the text: (§1) […]; Turkson, J. et al. Mol. Cell.
[…]. […] […].

[4] = test system: NIH3T3/v-Src; experiment: Viable cell number by trypan blue exclusion; assay type: cell-based, mouse; conditions: 100 μM, four days
From the text: (§2) […]. Values are the mean and S.D. of 3-4 independent determinations.
(§3) . The present inventors next determined whether this Stat3 activity inhibitor is able to inhibit the anchorage-dependent and -independent (transformation) growth of human and mouse cancer cell lines and whether this inhibition is dependent on the presence of persistently-active Stat3. […]. […]

[5] = test system: NIH3T3; experiment: Viable cell number by trypan blue exclusion; assay type: cell-based, mouse; conditions: 100 μM, four days
From the text: as §2, §3

[6] = test system: MDA-MB-231, MDA-MB-435 and MDA-MB-468; experiment: Viable cell number by trypan blue exclusion; assay type: cell-based, human; conditions: 100 μM, four days
From the text: as §2, §3

[7] = test system: MDA-MB-453; experiment: Viable cell number by trypan blue exclusion; assay type: cell-based, human; conditions: 100 μM, four days
From the text: as §2, §3

[8] = test system: NIH3T3/v-Ras; experiment: Soft-agar colony formation assay; assay type: cell-based, mouse; conditions: 100 μM every 3 days
Description: (§4) Briefly, each well contained 1.5 ml of 1% agarose in Dulbeco's modified Eagle's medium as the bottom layer and 1.5 ml of 0.5% agarose in Dulbeco's modified Eagle's medium containing 4000 or 6000 NIH3T3/v-Src or NIH3T3/v-Ras fibroblasts, respectively, as the top layer. […]. Colonies were quantified by staining with 20 μl of 1 mg/ml iodonitrotetrazolium violet, incubating at 37° C. overnight, and counting the next day.

[9] = test system: NIH3T3/v-Src; experiment: Soft-agar colony formation assay; assay type: cell-based, mouse; conditions: 100 μM every 3 days
Description: as §4

[10] = test system: MDA-MB-435; experiment: Apoptosis by Annexin V binding and Flow Cytometry; assay type: cell-based, human
Description: (§5) In some cases, cells were first transfected with Stat3C, ST3-NT, or ST3-SH2 domain or mock-transfected for 24 hours prior to treatment with compound for an additional 24-48 hours. Cells were then detached and analyzed by Annexin V binding (BD Biosciences, San Diego) according to the manufacturer's protocol and Flow Cytometry to quantify the percent apoptosis.

[11] = test system: MDA-MB-453; experiment: Apoptosis by Annexin V binding and Flow Cytometry; assay type: cell-based, human; conditions: 100 μM or less, 48 hours
Description: as §5

[12] = test system: NIH3T3/v-Src; experiment: Apoptosis by Annexin V binding and Flow Cytometry; assay type: cell-based, mouse
Description: . In FIG. 4B, human breast carcinoma MDA-MB-231 cells were transfected with pcDNA3 (mock), Stat3C or untransfected (Non), or the v-Src transformed mouse fibroblasts (NIH3T3/v-Src) were transfected with pcDNA3 (mock), N-terminus of Stat3 (ST3-NT) or the Stat3 SH2 domain (ST3-SH2) for […]. […]. Values are the mean and S.D. of six independent determinations. Western blot data are representative of 3 independent analyses.
as §5

[13] = test system: NIH3T3; experiment: Apoptosis by Annexin V binding and Flow Cytometry; assay type: cell-based, mouse
Description: as §5

[14] = test system: MDA-MB-231; experiment: Apoptosis by Annexin V binding and Flow Cytometry; assay type: cell-based, human; conditions: untransfected or mock-transfected cells; 100 μM
Description: as §1, §5
[…]. To this end, the breast carcinoma MDA-MB-231 cells that harbor activated Stat3 were transiently transfected with Stat3C and evaluated for apoptosis. […] […]. There is increased in the background level of cell death, which could be due to the effects of transfection. […].

[15] = test system: Cyclin D1, Bcl-xL and Survivin in NIH3T3/v-Src; experiment: Immunoblot of Stat3-regulated gene products; assay type: cell-based, mouse; conditions: 100, 48 hours
[16] = test system: Cyclin D1, Bcl-xL and Survivin in MDA-MB-231; experiment: Immunoblot of Stat3-regulated gene products; assay type: cell-based, human; conditions: 100, 48 hours
[17] = test system: human breast (MDA-MB-231) tumor; experiment: Human breast tumor xenografts in athymic nude mice; assay type: in vivo, mouse
[18] = target: FLAG-ST3:Stat3-YFP complex (Homo sapiens, UniProt P40763); conditions: NIH3T3/v-Src, 24 hours
[19] = test system: constitutively-active Stat3 in NIH3T3/v-Src fibroblasts; conditions: 100 μM, by 24 hours
Description: (§6) To investigate non-specific effects, SDS-PAGE and Western blot analysis was performed on whole-cell lysates from mouse fibroblasts transformed by v-Src (NIH3T3/v-Src) or overexpressing the human EGFR (NIH3T3/hEGFR) and stimulated by EGF to determine the ability to inhibit other signaling proteins.

[20] = test system: constitutively-active Stat3 in MDA-MB-231, MDA-MB-435 and MDA-MB-468 cells; conditions: 100 μM; by 24 hours in text, 48 hours in FIG. 2E legend
Description: as §6

[21] = test system: pTyr705 Stat3 in NIH3T3/v-Src fibroblasts; conditions: 100 μM, 24-hour treatment
[22] = test system: Stat3-dependent luciferase reporter pLucTKS3; conditions: dose-dependent manner
[23] = test system: Stat3-independent luciferase reporter pLucSRE; conditions: 100 μM, 24 hours
[24] = target: Stat3 (Homo sapiens, UniProt P40763); conditions: 10, 30, and 100 μM pre-incubation
Chain of Stat3 (P40763 2-770 limits assumed): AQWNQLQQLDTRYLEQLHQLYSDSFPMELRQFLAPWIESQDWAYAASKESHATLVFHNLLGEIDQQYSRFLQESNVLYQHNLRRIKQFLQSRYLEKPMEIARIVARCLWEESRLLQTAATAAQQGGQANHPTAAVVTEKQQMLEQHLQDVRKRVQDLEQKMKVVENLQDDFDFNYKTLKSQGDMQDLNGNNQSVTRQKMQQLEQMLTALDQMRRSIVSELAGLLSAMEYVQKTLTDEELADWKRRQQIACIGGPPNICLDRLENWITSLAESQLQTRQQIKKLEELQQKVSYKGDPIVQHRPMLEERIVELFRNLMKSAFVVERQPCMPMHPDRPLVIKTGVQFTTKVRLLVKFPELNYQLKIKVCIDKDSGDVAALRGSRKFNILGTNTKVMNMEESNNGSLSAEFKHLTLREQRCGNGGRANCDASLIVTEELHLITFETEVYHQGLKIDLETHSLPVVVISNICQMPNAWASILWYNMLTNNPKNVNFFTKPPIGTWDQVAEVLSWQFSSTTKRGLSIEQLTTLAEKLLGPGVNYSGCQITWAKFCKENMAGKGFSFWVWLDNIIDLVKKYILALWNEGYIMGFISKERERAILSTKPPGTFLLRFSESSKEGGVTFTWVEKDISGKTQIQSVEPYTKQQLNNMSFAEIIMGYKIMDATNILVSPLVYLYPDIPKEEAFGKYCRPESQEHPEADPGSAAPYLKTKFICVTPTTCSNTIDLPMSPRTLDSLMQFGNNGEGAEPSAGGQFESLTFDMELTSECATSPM
From the text: Values are the mean and S.D. of eight tumor-bearing mice each.

Chain of FLAG-ST3:Stat3-YFP complex (P40763 whole entry, one chain of several): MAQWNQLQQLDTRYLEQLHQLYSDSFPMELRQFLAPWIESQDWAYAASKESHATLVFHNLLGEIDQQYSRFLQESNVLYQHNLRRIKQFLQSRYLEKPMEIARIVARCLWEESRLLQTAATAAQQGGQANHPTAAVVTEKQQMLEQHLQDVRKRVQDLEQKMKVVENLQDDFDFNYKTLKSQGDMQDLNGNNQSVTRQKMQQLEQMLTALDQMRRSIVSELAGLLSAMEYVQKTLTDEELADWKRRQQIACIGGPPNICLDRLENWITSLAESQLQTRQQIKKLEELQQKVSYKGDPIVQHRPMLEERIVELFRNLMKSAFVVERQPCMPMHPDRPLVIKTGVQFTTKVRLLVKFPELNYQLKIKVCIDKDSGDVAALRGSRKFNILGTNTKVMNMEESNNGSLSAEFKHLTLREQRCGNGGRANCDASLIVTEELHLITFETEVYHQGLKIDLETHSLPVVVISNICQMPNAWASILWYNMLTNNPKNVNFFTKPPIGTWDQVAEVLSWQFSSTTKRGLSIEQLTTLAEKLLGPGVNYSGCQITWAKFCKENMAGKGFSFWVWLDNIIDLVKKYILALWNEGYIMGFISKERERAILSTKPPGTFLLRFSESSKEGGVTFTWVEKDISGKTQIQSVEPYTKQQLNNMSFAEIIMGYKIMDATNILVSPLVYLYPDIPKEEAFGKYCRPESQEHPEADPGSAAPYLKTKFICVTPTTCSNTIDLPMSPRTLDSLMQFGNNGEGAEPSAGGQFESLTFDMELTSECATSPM

For `Cc1ccc(S(=O)(=O)OCC(=O)Nc2ccc(C(=O)O)c(O)c2)cc1` [Compound S3I-201, 2-Hydroxy-4-(2-(tosyloxy)acetamido)benzoic acid], the “preference for Stat3 over Stat5 (less potency for Stat5)” value ([1]; DNA-binding activity) was 2 fold, the IC50 ([1]; Table 4, listed as 74859, read-out: IC50 values for the inhibition of STATs DNA-binding activity in vitro, Stat5:5) was 166 µM and the “phosphorylation of Shc (pShc), Erk1/2 (pErk1/2), or Src (pSrc)” value ([2]; 100 μM, 24 hours) was “no significant effect”. The “total Erk1/2 protein levels” value ([2]; 24 hours) was “unchanged”, the “pTyr profile, anti-pTyr antibody 4G10 clone” value ([2]; NIH3T3/v-Src, 24-hour treatment) was “no significant changes” and the “v-Src-mediated induction of β-Casein promoter Luc” value [3] was “not affected”. The “viable cell numbers and growth” value [4] was “significantly reduced viable cell numbers and inhibited growth”, the growth and viability [5] was “not significantly altered” and the “viable cell numbers and growth” value [6] was “significantly reduced viable cell numbers and inhibited growth”. For the same compound, the growth and viability [7] was “not significantly altered”, the soft-agar growth [8] was “unaffected” and the “growth in soft-agar suspension” value [9] was “significantly inhibited”. For the same compound, the “sensitivity to apoptosis induction” value ([10]; 30 μM) was “more sensitive”, the apoptosis ([10]; 30-100, 48 hours) was “significant apoptosis” and the “sensitivity to apoptosis induction” value [11] was “less sensitive”. The apoptosis ([12]; 30-100, 48 hours) was “significant apoptosis”, the apoptosis ([12]; cells overexpressing the ST3-NT region) was “strong induction of apoptosis” and the apoptosis ([12]; mock-transfected cells) was “strongly induced”. For the same compound, the apoptosis ([12]; overexpression of the Stat3-SH2 domain) was “diminished the apoptotic effects”, the “sensitivity to apoptosis induction” value ([13]; 100 μM or less, 48 hours) was “less sensitive” and the cytotoxicity ([13]; 300 μM or higher, independent of Stat3 activation status) was “general, non-specific cytotoxicity”. For the same compound, the apoptosis [14] was 50-80%, the “expression of the Cyclin D1, Bcl-xL and Survivin proteins” value [15] was “significant reduction in expression” and the “expression of the Cyclin D1, Bcl-xL and Survivin proteins” value [16] was “significant reduction in expression”. The “tumor growth compared to control (vehicle-treated) tumors” value ([17]; 5 mg/kg i.v. every 2 or every 3 days for two weeks) was “strong growth inhibition”, the “tumor growth upon termination of treatment” value ([17]; data not shown) was “no resumption of tumor growth” and the “total Stat3 protein in residual tumor tissue” value ([17]; treated mice T1 and T2) was “remained unchanged”. The “pTyr Stat3 (pYStat3) in residual tumor tissue” value ([17]; treated mice T1 and T2 compared to control) was “minimal to no detection”, the “Stat3 DNA binding activity in residual tumor tissue (EMSA)” value ([17]; treated mice T1 and T2 compared to control tumor) was “strong inhibition” and the “FLAG-ST3 protein in the Stat3-YFP immunoprecipitates” value [18] was “no detectable level”. For the same compound, the “Stat3-YFP in the FLAG-ST3 immunoprecipitates” value [18] was “significantly reduced”, the “constitutive Stat3 activation” value [19] was “significantly inhibited” and the “constitutive Stat3 activation” value [20] was “significantly inhibited”. The “pTyr705 Stat3 levels” value [21] was “significantly diminished”, the “total Stat3 protein level” value [21] was “remained unchanged” and the “v-Src-mediated pLucTKS3 induction” value [22] was “significantly inhibited”. For the same compound, the “v-Src-mediated induction of pLucSRE” value [23] was “not affected” and the “Stat3 activity in control tumor tissue lysates” value [24] was “dose-dependent abrogation”.
